Experimental data reported in ChEMBL document CHEMBL1201862, “PubChem BioAssay data set” (2004).
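A five-concentration, 48-hour dose response in 96-well plates underlies each endpoint, interpolated linearly between surrounding concentrations. Here, GI50 denotes the concentration required for 50% inhibition of growth.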 The source made the active and inactive calls. Cut-off read from the data, not from the text of the source: active = GI50 up to about 1.1 µM and inactive = higher.

Experiments:
Assay in all cases: DTP human tumour cell line panel, 48 h
[1] = tested on: SR
[2] = tested on: UACC-257
[3] = tested on: SN12C
[4] = tested on: SW-620
[5] = tested on: TK-10
[6] = tested on: XF498
[7] = tested on: NCI-H226
[8] = tested on: OVCAR-4
[9] = tested on: RXF 393
[10] = tested on: M19-MEL
[11] = tested on: HOP-92
[12] = tested on: HOP-62
[13] = tested on: HT-29
[14] = tested on: OVCAR-3
[15] = tested on: LOX IMVI
[16] = tested on: CAKI-1
[17] = tested on: DMS-273
[18] = tested on: IGROV-1
[19] = tested on: K562
[20] = tested on: U-251
[21] = tested on: RPMI-8226
[22] = tested on: HL-60
[23] = tested on: UACC-62
[24] = tested on: SF-268
[25] = tested on: SF-295
[26] = tested on: SK-MEL-5
[27] = tested on: UO-31
[28] = tested on: M14
[29] = tested on: SK-MEL-2
[30] = tested on: Malme-3M
[31] = tested on: HOP-18
[32] = tested on: OVCAR-8
[33] = tested on: HCC 2998
[34] = tested on: NCI-H522
[35] = tested on: NCI-H460
[36] = tested on: OVCAR-5
[37] = tested on: HCT-15
[38] = tested on: DLD-1
[39] = tested on: SNB-75
[40] = tested on: KM-20L2
[41] = tested on: SK-OV-3
[42] = tested on: A549
[43] = tested on: SF-539
[44] = tested on: SNB-78
[45] = tested on: LXFL 529
[46] = tested on: EKVX
[47] = tested on: SNB-19
[48] = tested on: HCT-116
[49] = tested on: NCI-H23
[50] = tested on: MOLT-4
[51] = tested on: DMS-114
[52] = tested on: CCRF-CEM
[53] = tested on: ACHN
[54] = tested on: A498
[55] = tested on: COLO 205
[56] = tested on: KM12
[57] = tested on: 786-0
[58] = tested on: SK-MEL-28

In the case of `O=C(O)C1CCCCN1c1ccccc1[N+](=O)[O-]` (stereo not drawn), the GI50 [1] is reported as > 100 µM (inactive), the GI50 [2] is reported as > 100 µM (inactive) and the GI50 [3] is reported as > 100 µM (inactive). The GI50 [4] was > 100 µM (inactive), the GI50 [5] was > 100 µM (inactive) and the GI50 [6] was > 100 µM (inactive). The GI50 [7] was > 100 µM (inactive), the GI50 [8] was > 100 µM (inactive) and the GI50 [9] was > 100 µM (inactive). For the same compound, the GI50 [10] was > 100 µM (inactive), the GI50 [11] was > 100 µM (inactive) and the GI50 [12] was > 100 µM (inactive). The GI50 [13] was > 100 µM (inactive), the GI50 [14] was > 100 µM (inactive) and the GI50 [15] was > 100 µM (inactive). The GI50 [16] was > 100 µM (inactive), the GI50 [17] was > 100 µM (inactive) and the GI50 [18] was > 100 µM (inactive). The GI50 [19] was > 100 µM (inactive), the GI50 [20] was > 100 µM (inactive) and the GI50 [21] was > 100 µM (inactive). The GI50 [22] was > 100 µM (inactive), the GI50 [23] was > 100 µM (inactive) and the GI50 [24] was > 100 µM (inactive). For the same compound, the GI50 [25] was > 100 µM (inactive), the GI50 [26] was > 100 µM (inactive) and the GI50 [27] was > 100 µM (inactive). The GI50 [28] was > 100 µM (inactive), the GI50 [29] was > 100 µM (inactive) and the GI50 [30] was > 100 µM (inactive). The GI50 [31] was > 100 µM (inactive), the GI50 [32] was > 100 µM (inactive) and the GI50 [33] was > 100 µM (inactive). For the same compound, the GI50 [34] was > 100 µM (inactive), the GI50 [35] was > 100 µM (inactive) and the GI50 [36] was > 100 µM (inactive). For the same compound, the GI50 [37] was greater than 100 µM, the GI50 [38] was > 100 µM (inactive) and the GI50 [39] was > 100 µM (inactive). The GI50 [40] was > 100 µM (inactive), the GI50 [41] was > 100 µM (inactive) and the GI50 [42] was > 100 µM (inactive). For the same compound, the GI50 [43] was > 100 µM (inactive), the GI50 [44] was > 100 µM (inactive) and the GI50 [45] was > 100 µM (inactive). For the same compound, the GI50 [46] was > 100 µM (inactive), the GI50 [47] was > 100 µM (inactive) and the GI50 [48] was > 100 µM (inactive). The GI50 [49] was > 100 µM (inactive), the GI50 [50] was > 100 µM (inactive) and the GI50 [51] was > 100 µM (inactive). The GI50 [52] was > 100 µM (inactive) and the GI50 [53] was > 100 µM (inactive).

For `CN(C)C=[N+]=[N-]`, the GI50 [1] was > 100 µM (inactive), the GI50 [2] was > 100 µM (inactive) and the GI50 [3] was > 100 µM (inactive). For the same compound, the GI50 [4] was > 100 µM (inactive), the GI50 [5] was > 100 µM (inactive) and the GI50 [6] was > 100 µM (inactive). The GI50 [7] was > 100 µM (inactive), the GI50 [8] was > 100 µM (inactive) and the GI50 [9] was > 100 µM (inactive). For the same compound, the GI50 [10] was > 100 µM (inactive), the GI50 [11] was > 100 µM (inactive) and the GI50 [12] was > 100 µM (inactive). For the same compound, the GI50 [13] was > 100 µM (inactive), the GI50 [14] was > 100 µM (inactive) and the GI50 [16] was 43 µM (inactive). The GI50 [17] was > 100 µM (inactive), the GI50 [18] was > 100 µM (inactive) and the GI50 [19] was > 100 µM (inactive). The GI50 [54] was > 100 µM (inactive), the GI50 [20] was > 100 µM (inactive) and the GI50 [21] was > 100 µM (inactive). The GI50 [22] was > 100 µM (inactive), the GI50 [23] was > 100 µM (inactive) and the GI50 [24] was > 100 µM (inactive). The GI50 [25] was > 100 µM (inactive), the GI50 [26] was > 100 µM (inactive) and the GI50 [55] was > 100 µM (inactive). The GI50 [27] was > 100 µM (inactive), the GI50 [28] was > 100 µM (inactive) and the GI50 [29] was > 100 µM (inactive). For the same compound, the GI50 [30] was > 100 µM (inactive), the GI50 [31] was > 100 µM (inactive) and the GI50 [32] was > 100 µM (inactive). The GI50 [33] was > 100 µM (inactive), the GI50 [34] was 0.17 µM (active) and the GI50 [35] was > 100 µM (inactive). For the same compound, the GI50 [36] was > 100 µM (inactive), the GI50 [37] was greater than 100 µM and the GI50 [38] was > 100 µM (inactive). The GI50 [39] was > 100 µM (inactive), the GI50 [40] was > 100 µM (inactive) and the GI50 [41] was > 100 µM (inactive). For the same compound, the GI50 [42] was > 100 µM (inactive), the GI50 [43] was > 100 µM (inactive) and the GI50 [56] was > 100 µM (inactive). The GI50 [44] was > 100 µM (inactive), the GI50 [45] was > 100 µM (inactive) and the GI50 [46] was > 100 µM (inactive). For the same compound, the GI50 [47] was > 100 µM (inactive), the GI50 [48] was > 100 µM (inactive) and the GI50 [49] was > 100 µM (inactive). The GI50 [50] was > 100 µM (inactive), the GI50 [57] was > 100 µM (inactive) and the GI50 [51] was > 100 µM (inactive). The GI50 [53] was > 100 µM (inactive).

For `COc1ccccc1NC(=O)CC(=O)N1N=C(C)C(/N=N/c2ccc(S(N)(=O)=O)cc2)C1=O` (stereo not drawn), the GI50 [1] was > 100 µM (inactive), the GI50 [2] was > 100 µM (inactive) and the GI50 [3] was > 100 µM (inactive). The GI50 [4] was > 100 µM (inactive), the GI50 [5] was > 100 µM (inactive) and the GI50 [6] was > 100 µM (inactive). The GI50 [7] was > 100 µM (inactive), the GI50 [8] was > 100 µM (inactive) and the GI50 [9] was > 100 µM (inactive). The GI50 [10] was > 100 µM (inactive), the GI50 [11] was > 100 µM (inactive) and the GI50 [12] was > 100 µM (inactive). For the same compound, the GI50 [13] was > 100 µM (inactive), the GI50 [14] was > 100 µM (inactive) and the GI50 [15] was > 100 µM (inactive). For the same compound, the GI50 [16] was > 100 µM (inactive), the GI50 [17] was > 100 µM (inactive) and the GI50 [18] was > 100 µM (inactive). For the same compound, the GI50 [54] was > 100 µM (inactive), the GI50 [20] was > 100 µM (inactive) and the GI50 [21] was > 100 µM (inactive). For the same compound, the GI50 [23] was > 100 µM (inactive), the GI50 [24] was > 100 µM (inactive) and the GI50 [25] was > 100 µM (inactive). For the same compound, the GI50 [26] was > 100 µM (inactive), the GI50 [55] was > 100 µM (inactive) and the GI50 [27] was > 100 µM (inactive). For the same compound, the GI50 [28] was > 100 µM (inactive), the GI50 [29] was > 100 µM (inactive) and the GI50 [30] was > 100 µM (inactive). The GI50 [31] was > 100 µM (inactive), the GI50 [32] was > 100 µM (inactive) and the GI50 [33] was > 100 µM (inactive). The GI50 [34] was > 100 µM (inactive), the GI50 [35] was > 100 µM (inactive) and the GI50 [36] was > 100 µM (inactive). For the same compound, the GI50 [37] was greater than 100 µM, the GI50 [38] was > 100 µM (inactive) and the GI50 [39] was > 100 µM (inactive). The GI50 [40] was > 100 µM (inactive), the GI50 [41] was > 100 µM (inactive) and the GI50 [42] was > 100 µM (inactive). For the same compound, the GI50 [43] was > 100 µM (inactive), the GI50 [56] was > 100 µM (inactive) and the GI50 [44] was > 100 µM (inactive). The GI50 [45] was > 100 µM (inactive), the GI50 [46] was > 100 µM (inactive) and the GI50 [47] was > 100 µM (inactive). The GI50 [48] was > 100 µM (inactive), the GI50 [49] was > 100 µM (inactive) and the GI50 [50] was > 100 µM (inactive). The GI50 [57] was > 100 µM (inactive), the GI50 [51] was > 100 µM (inactive) and the GI50 [58] was > 100 µM (inactive). The GI50 [53] was > 100 µM (inactive).
